Where two headings read alike, the source gives them in different places.
Biological target: IRAK4 (Homo sapiens (Human), UniProt Q9NWZ3)
Test: IRAK4 MSD degradation in OCI-LY10
Type: cell-based
Conditions: MSD
Protocol: Degradation of IRAK4 in OCI-LY10 was quantitatively measured using Meso Scale Discovery technology. […] Compounds were then added to the assay plates with a final top concentration of 1 to 10 μM in a 1:3 dilution series with total of 8 doses. The assay plates were then incubated for 4 to 24 hours at 37° C. under 5% CO2. […] To prepare MSD assay plates (Meso Scale Discovery Catalog number L15XA-3), the plates were coated with […] capture antibody (mouse Anti-IRAK4 antibody [2H9], ab119942) in PBS, at 40 μL/well. […] Cell lysates were then added to MSD assay plates and the plates were incubated at room temperature for 1 hour. The plates were then washed 3 times with 150 μL/well TBST buffer and 25 μL/well primary detection antibody (rabbit Anti-IRAK4 antibody [Y279], from Abcam. Catalog number ab32511, […]). The assay plates were then incubated at room temperature for 1 hour, washed 3 times with 150 μL/well TBST buffer and 25 µL/well secondary detection antibody, SULFO-TAG anti-rabbit antibody were added (anti rabbit antibody from Meso Scale Discovery, Catalog number R32AB-1, 1 μg/mL). The assay plates were then incubated at room temperature for 1 hour, washed 3 times with 150 μL/well TB ST buffer, and 150 μL/well MSD reading buffer (Meso Scale Discovery catalog number R92TC-2) was added. The plates were then analyzed by a MSD reader (Meso Scale Discovery, Model Quick Plex SQ 120). The data was then analyzed by software Prism 7.0 from GraphPad and the dose-depended IRAK4 degradation were fit using a three-parameter logistic equation to calculate DC50.

[1] = OCI-LY10, 4 hrs, read-out: IRAK4 MSD degradation in OCI-LY10 at 4 hrs: Average external-Abs DC50
[2] = OCI-LY10, 24 hrs, read-out: IRAK4 MSD degradation in OCI-LY10 at 24 hrs: Average external-Abs DC50

Sequence of IRAK4 (Q9NWZ3 whole entry): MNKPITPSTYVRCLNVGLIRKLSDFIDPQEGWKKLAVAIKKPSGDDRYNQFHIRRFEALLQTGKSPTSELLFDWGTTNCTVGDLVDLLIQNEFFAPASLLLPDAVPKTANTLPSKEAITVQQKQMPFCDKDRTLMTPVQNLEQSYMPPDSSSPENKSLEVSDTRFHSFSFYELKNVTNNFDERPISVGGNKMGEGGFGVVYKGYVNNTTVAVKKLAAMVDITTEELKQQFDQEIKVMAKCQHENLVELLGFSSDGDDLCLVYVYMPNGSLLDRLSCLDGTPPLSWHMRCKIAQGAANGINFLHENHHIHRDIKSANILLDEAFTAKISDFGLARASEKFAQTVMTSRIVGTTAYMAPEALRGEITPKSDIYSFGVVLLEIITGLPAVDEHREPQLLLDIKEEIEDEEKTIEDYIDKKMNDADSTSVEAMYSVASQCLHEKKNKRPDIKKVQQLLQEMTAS

SMILES: Cn1c(=O)n(C2CCC(=O)NC2=O)c2cccc(CCCOCCOCCOCCOCC(=O)N3CCN([C@H]4CC[C@H](Nc5ncnn6ccc(C7CCOCC7)c56)CC4)CC3)c21 (stereo partly shown) [I-19]
- DC50 [1]: > 1000 nM
- DC50 [2]: > 1000 nM

SMILES: CN(CCOCCNCc1ccc2c(c1)n(C)c(=O)n2C1CCC(=O)NC1=O)C(=O)[C@H]1CC[C@H](n2cc(NC(=O)c3coc(-c4ccnc(NCC5CC5)c4)n3)c(C(F)F)n2)CC1 (stereo partly shown) [I-55]
- DC50 [1]: < 10 nM

SMILES: CN(CCOCC1CCN(c2ccc3c(c2)n(C)c(=O)n3C2CCC(=O)NC2=O)CC1)C[C@H]1CC[C@H](n2cc(NC(=O)c3coc(-c4ccnc(NCC5CC5)c4)n3)c(C(F)F)n2)CC1 (stereo partly shown) [I-56]
- DC50 [1]: 100 to 1000 nM

SMILES: CN(CC1CCN(CCC#Cc2ccc3c(c2)n(C)c(=O)n3C2CCC(=O)NC2=O)CC1)C[C@H]1CC[C@H](n2cc(NC(=O)c3coc(-c4ccnc(NCC5CC5)c4)n3)c(C(F)F)n2)CC1 (stereo partly shown) [I-57]
- DC50 [1]: < 10 nM

SMILES: Cn1c(=O)n(C2CCC(=O)NC2=O)c2ccc(CCCN3CCO[C@@H](CNC[C@H]4CC[C@H](n5cc(NC(=O)c6coc(-c7ccnc(NCC(F)(F)F)c7)n6)c(C(C)(C)O)n5)CC4)C3)cc21 (stereo partly shown) [I-60]
- DC50 [1]: 10 to 100 nM

SMILES: CC(C)N(CCCOCCCc1cccc2c1n(C)c(=O)n2C1CCC(=O)NC1=O)C[C@H]1CC[C@H](n2cc(NC(=O)c3coc(-c4ccnc(NCC5CC5)c4)n3)c(C(F)F)n2)CC1 (stereo partly shown) [I-63]
- DC50 [1]: 10 to 100 nM

SMILES: Cn1c(=O)n(C2CCC(=O)NC2=O)c2cccc(CCCOCCCN(C[C@H]3CC[C@H](n4cc(NC(=O)c5coc(-c6ccnc(NCC7CC7)c6)n5)c(C(F)F)n4)CC3)C3CC3)c21 (stereo partly shown) [I-64]
- DC50 [1]: 100 to 1000 nM

SMILES: CN(CCCCc1cccc2c1n(C)c(=O)n2C1CCC(=O)NC1=O)C[C@H]1CC[C@H](n2cc(NC(=O)c3coc(-c4ccnc(NCC5CC5)c4)n3)c(C(F)F)n2)CC1 (stereo partly shown) [I-66]
- DC50 [1]: < 10 nM

SMILES: CNc1cc(-c2nc(C(=O)Nc3cn([C@H]4CC[C@H](CN(C)CCCOCCCc5cccc6c5n(C)c(=O)n6C5CCC(=O)NC5=O)CC4)nc3C(F)F)co2)ccn1 (stereo partly shown) [I-68]
- DC50 [1]: 10 to 100 nM

SMILES: CN(CCCOCCCc1cccc2c1n(C)c(=O)n2C1CCC(=O)NC1=O)C[C@H]1CC[C@H](n2cc(NC(=O)c3coc(-c4ccncc4)n3)c(C(F)F)n2)CC1 (stereo partly shown) [I-69]
- DC50 [1]: 100 to 1000 nM

SMILES: CN(CCCOCCCc1cccc2c1n(C)c(=O)n2C1CCC(=O)NC1=O)C[C@H]1CC[C@H](n2cc(NC(=O)c3cccc(C(F)(F)F)n3)c(C(C)(C)O)n2)CC1 (stereo partly shown) [I-71]
- DC50 [1]: 100 to 1000 nM

SMILES: Cn1c(=O)n(C2CCC(=O)NC2=O)c2cccc(CCCO[C@H]3CCN(C[C@H]4CC[C@H](n5cc(NC(=O)c6coc(-c7ccnc(NCC8CC8)c7)n6)c(C(F)F)n5)CC4)C3)c21 (stereo partly shown) [I-72]
- DC50 [1]: 10 to 100 nM

SMILES: Cn1c(=O)n(C2CCC(=O)NC2=O)c2cccc(CCCO[C@@H]3CCN(C[C@H]4CC[C@H](n5cc(NC(=O)c6coc(-c7ccnc(NCC8CC8)c7)n6)c(C(F)F)n5)CC4)C3)c21 (stereo partly shown) [I-73]
- DC50 [1]: < 10 nM

SMILES: Cn1c(=O)n(C2CCC(=O)NC2=O)c2cccc(CN3CCC(CC4CCN(C[C@H]5CC[C@H](n6cc(NC(=O)c7coc(-c8ccnc(NCC9CC9)c8)n7)c(C(F)F)n6)CC5)CC4)CC3)c21 (stereo partly shown) [I-74]
- DC50 [1]: < 10 nM

SMILES: CN(C[C@H]1CN(Cc2cccc3c2n(C)c(=O)n3C2CCC(=O)NC2=O)CCO1)C[C@H]1CC[C@H](n2cc(NC(=O)c3coc(-c4ccnc(NCC5CC5)c4)n3)c(C(F)F)n2)CC1 (stereo partly shown) [I-77]
- DC50 [1]: 10 to 100 nM

SMILES: CN(C[C@@H]1CN(Cc2cccc3c2n(C)c(=O)n3C2CCC(=O)NC2=O)CCO1)C[C@H]1CC[C@H](n2cc(NC(=O)c3coc(-c4ccnc(NCC5CC5)c4)n3)c(C(F)F)n2)CC1 (stereo partly shown) [I-78]
- DC50 [1]: 10 to 100 nM

SMILES: CN(CCC1CCN(Cc2cccc3c2n(C)c(=O)n3C2CCC(=O)NC2=O)CC1)C[C@H]1CC[C@H](n2cc(NC(=O)c3coc(-c4ccnc(NCC5CC5)c4)n3)c(C(F)F)n2)CC1 (stereo partly shown) [I-79]
- DC50 [1]: 10 to 100 nM

SMILES: CN(CCCOCCCc1ccc2c(c1)n(C)c(=O)n2C1CCC(=O)NC1=O)C[C@H]1CC[C@H](n2cc(NC(=O)c3coc(-c4ccnc(NCC5CC5)c4)n3)c(C(C)(C)O)n2)CC1 (stereo partly shown) [I-83]
- DC50 [1]: 100 to 1000 nM

SMILES: CN(CCCOCCCc1ccc2c(c1)oc(=O)n2C1CCC(=O)NC1=O)C[C@H]1CC[C@H](n2cc(NC(=O)c3coc(-c4ccnc(NCC5CC5)c4)n3)c(C(F)F)n2)CC1 (stereo partly shown) [I-87]
- DC50 [1]: < 10 nM

SMILES: CN(CCCOCC#Cc1cccc2c1n(C)c(=O)n2C1CCC(=O)NC1=O)C[C@H]1CC[C@H](n2cc(NC(=O)c3coc(-c4ccnc(NCC5CC5)c4)n3)c(C(F)F)n2)CC1 (stereo partly shown) [I-88]
- DC50 [1]: 100 to 1000 nM

SMILES: CN(CCOC(=O)NCc1ccc2c(c1)n(C)c(=O)n2C1CCC(=O)NC1=O)C[C@H]1CC[C@H](n2cc(NC(=O)c3coc(-c4ccnc(NCC5CC5)c4)n3)c(C(F)F)n2)CC1 (stereo partly shown) [I-91]
- DC50 [1]: 100 to 1000 nM

SMILES: O=C1CCC(n2c3cccc(CCCOCCOCCNC[C@H]4CC[C@H](n5cc(NC(=O)c6coc(-c7ccnc(NCC8CC8)c7)n6)c(C(F)F)n5)CC4)c3c3cccnc32)C(=O)N1 (stereo partly shown) [I-93]
- DC50 [1]: 10 to 100 nM

SMILES: CN(CC[C@H]1CN(CCCc2ccc3c(c2)n(C)c(=O)n3C2CCC(=O)NC2=O)CCO1)C[C@H]1CC[C@H](n2cc(NC(=O)c3coc(-c4ccnc(NCC5CC5)c4)n3)c(C(F)F)n2)CC1 (stereo partly shown) [I-96]
- DC50 [1]: 10 to 100 nM

SMILES: CN(CC[C@@H]1CN(CCCc2ccc3c(c2)n(C)c(=O)n3C2CCC(=O)NC2=O)CCO1)C[C@H]1CC[C@H](n2cc(NC(=O)c3coc(-c4ccnc(NCC5CC5)c4)n3)c(C(F)F)n2)CC1 (stereo partly shown) [I-97]
- DC50 [1]: < 10 nM

SMILES: CN(CCOCCCc1cccc2c1N(C)C(=O)C2C1CCC(=O)NC1=O)CC[C@H]1CC[C@H](n2cc(NC(=O)c3coc(-c4ccnc(NCC5CC5)c4)n3)c(C(F)F)n2)CC1 (stereo partly shown) [I-154]
- DC50 [1]: 10 to 100 nM
- DC50 [2]: 10 to 100 nM

SMILES: Cn1c(=O)n(C2CCC(=O)NC2=O)c2ccc(CN3CCC(CCO[C@H]4C[C@H](N(C)C[C@H]5CC[C@H](n6cc(NC(=O)c7coc(-c8ccnc(NCC9CC9)c8)n7)c(C(F)F)n6)CC5)C4)CC3)cc21 (stereo partly shown) [I-238]
- DC50 [1]: 10 to 100 nM

SMILES: Cn1c(=O)n(C2CCC(=O)NC2=O)c2cccc(CN3CCC(OCC4CCN(C[C@H]5CC[C@H](n6cc(NC(=O)c7coc(-c8ccnc(NCC9CC9)c8)n7)c(C(F)F)n6)CC5)CC4)CC3)c21 (stereo partly shown) [I-248]
- DC50 [1]: < 10 nM

SMILES: Cn1c(=O)n(C2CCC(=O)NC2=O)c2cccc(CCCOC3CCN(C[C@H]4CC[C@H](n5cc(NC(=O)c6cnn7cccnc67)c(C(F)F)n5)CC4)CC3)c21 (stereo partly shown) [I-251]
- DC50 [1]: 100 to 1000 nM

SMILES: Cn1c(=O)n(C2CCC(=O)NC2=O)c2cccc(CN3CCC(CCCN4CCC(n5cc(NC(=O)c6coc(-c7ccnc(NCC8CC8)c7)n6)c(C(F)F)n5)CC4)CC3)c21 (stereo not shown) [I-253]
- DC50 [1]: 10 to 100 nM

SMILES: Cn1c(=O)n(C2CCC(=O)NC2=O)c2ccc(CN3CCC(CCC(=O)N4CCC(n5cc(NC(=O)c6coc(-c7ccnc(NCC8CC8)c7)n6)c(C(F)F)n5)CC4)CC3)cc21 (stereo not shown) [I-255]
- DC50 [1]: 10 to 100 nM
- DC50 [2]: < 10 nM

SMILES: Cn1c(=O)n(C2CCC(=O)NC2=O)c2cccc(CN3CCC(OC4CCN(C[C@H]5CC[C@H](n6cc(NC(=O)c7coc(-c8ccnc(NCC9CC9)c8)n7)c(C(F)F)n6)CC5)CC4)CC3)c21 (stereo partly shown) [I-256]
- DC50 [1]: < 10 nM

SMILES: CN1CCN(c2ccn3ncc(C(=O)Nc4cn([C@H]5CC[C@H](CN6CCC(OCCCc7cccc8c7n(C)c(=O)n8C7CCC(=O)NC7=O)CC6)CC5)nc4C(F)F)c3c2)CC1 (stereo partly shown) [I-258]
- DC50 [1]: 10 to 100 nM
- DC50 [2]: 10 to 100 nM

SMILES: Cn1c(=O)n(C2CCC(=O)NC2=O)c2ccc(CCCOCCCCCN3CCC(n4cc(NC(=O)c5coc(-c6ccnc(NCC7CC7)c6)n5)c(C(F)F)n4)CC3)cc21 (stereo not shown) [I-261]
- DC50 [1]: < 10 nM
- DC50 [2]: < 10 nM

SMILES: Cn1c(=O)n(C2CCC(=O)NC2=O)c2cccc(CCCOCCCCCN3CCC(n4cc(NC(=O)c5coc(-c6ccnc(NCC7CC7)c6)n5)c(C(F)F)n4)CC3)c21 (stereo not shown) [I-262]
- DC50 [1]: < 10 nM
- DC50 [2]: < 10 nM

— US11352350B2, “IRAK degraders and uses thereof” (Kymera Therapeutics, Inc., priority 2018, dated 2022)
